# Patent publication US11591336B2 (Relay Therapeutics, Inc., priority 2017, dated 2023)
# pIC50: −log10 of the molar value. Where a name gives a salt, the structure may show the parent alone.
# Molecular target: SHP2 (Homo sapiens (Human), UniProt Q06124)
# Test: SHP2 Allosteric Inhibition Assay (DiFMUP prompt fluorescence)
# Assay type: biochemical
# Settings: 0.25 nM SHP2 activated with 0.5 μM peptide IRS1_pY1172(dPEG8)pY1222; substrate DiFMUP 100 μM; 25° C.
row,SMILES,pIC50
1,C[C@@H]1OCC2(CCN(c3cnc4c(N5CCN(CCS(C)(=O)=O)c6cc(C#N)ccc65)n[nH]c4n3)CC2)[C@@H]1N [Compound 408],> 6.00
2,C#Cc1ccc2c(n1)CCCN2c1n[nH]c2nc(N3CCC4(CC3)CO[C@@H](C)[C@H]4N)cnc12 [Compound 410],> 6.00
3,C[C@@H]1OCC2(CCN(c3cnc4c(N5CCN(C)c6cc(-c7nccs7)ccc65)n[nH]c4n3)CC2)[C@@H]1N [Compound 415],> 6.00
4,C[C@@H]1OCC2(CCN(c3cnc4c(N5CCCc6c(N=S(C)(C)=O)cccc65)n[nH]c4n3)CC2)[C@@H]1N [Compound 418],> 6.00
5,CN=[S@](C)(=O)c1cccc2c1CCCN2c1n[nH]c2nc(N3CCC4(CC3)CO[C@@H](C)[C@H]4N)cnc12 [Compound 419],> 6.00
6,CN=[S@@](C)(=O)c1cccc2c1CCCN2c1n[nH]c2nc(N3CCC4(CC3)CO[C@@H](C)[C@H]4N)cnc12 [Compound 420],> 6.00
7,C[C@@H]1OCC2(CCN(c3cnc4c(N5CCCc6c5cccc6[S@](C)(=N)=O)n[nH]c4n3)CC2)[C@@H]1N [Compound 422],> 6.00
8,"C[C@@H]1OCC2(CCN(c3cnc4c(N5CCN(CC(=O)O)c6cc(C#N)ccc65)n[nH]c4n3)CC2)[C@@H]1N [Compound 423, 2-(4-{6-[(3S,4S)-4-amino-3-methyl-2-oxa-8-azaspiro[4.5]decan-8-yl]-1H-pyrazolo[3,4-b]pyrazin-3-yl}-7-cyano-1,2,3,4-tetrahydroquinoxalin-1-yl)acetic acid]",> 6.00
9,C[C@@H]1OCC2(CCN(c3cnc4c(N5CCCc6c5ccnc6-c5nccs5)n[nH]c4n3)CC2)[C@@H]1N [Compound 424],> 6.00
10,"CNC(=O)Cc1ccc2c(n1)CCCN2c1n[nH]c2nc(N3CCC4(CC3)CO[C@@H](C)[C@H]4N)cnc12 [Compound 425, 2-(5-{6-[(3S,4S)-4-amino-3-methyl-2-oxa-8-azaspiro[4.5]decan-8-yl]-1H-pyrazolo[3,4-b]pyrazin-3-yl}-5,6,7,8-tetrahydro-1,5-naphthyridin-2-yl)-N-methylacetamide]",> 6.00
11,"C[C@@H]1OCC2(CCN(c3cnc4c(N5CC[C@H](C)c6nc(-c7ccn[nH]7)ccc65)n[nH]c4n3)CC2)[C@@H]1N [Compound 430, (3S,4S)-3-methyl-8-{3-[(4S)-4-methyl-6-(1H-pyrazol-5-yl)-1,2,3,4-tetrahydro-1,5-naphthyridin-1-yl]-1H-pyrazolo[3,4-b]pyrazin-6-yl}-2-oxa-8-azaspiro[4.5]decan-4-amine]",> 6.00
12,"C[C@@H]1OCC2(CCN(c3cnc4c(N5CCCc6c(CO)cccc65)n[nH]c4n3)CC2)[C@@H]1N [Compound 431, (1-{6-[(3S,4S)-4-amino-3-methyl-2-oxa-8-azaspiro[4.5]decan-8-yl]-1H-pyrazolo[3,4-b]pyrazin-3-yl}-1,2,3,4-tetrahydroquinolin-5-yl)methanol]",> 6.00
13,"CNC(=O)Cc1cccc2c1CCCN2c1n[nH]c2nc(N3CCC4(CC3)CO[C@@H](C)[C@H]4N)cnc12 [Compound 434, 2-(1-{6-[(3S,4S)-4-amino-3-methyl-2-oxa-8-azaspiro[4.5]decan-8-yl]-1H-pyrazolo[3,4-b]pyrazin-3-yl}-1,2,3,4-tetrahydroquinolin-5-yl)-N-methylacetamide hydrochloride]",> 6.00
14,"C[C@@H]1OCC2(CCN(c3cnc4c(N5CCCc6nc(/C=N\O)ccc65)n[nH]c4n3)CC2)[C@@H]1N [Compound 436, (3S,4S)-8-(3-{6-[(1Z)-(hydroxyimino)methyl]-1,2,3,4-tetrahydro-1,5-naphthyridin-1-yl}-1H-pyrazolo[3,4-b]pyrazin-6-yl)-3-methyl-2-oxa-8-azaspiro[4.5]decan-4-amine hydrochloride]",> 6.00
15,C[C@@H]1OCC2(CCN(c3cnc4c(N5CCN(C)c6c(-c7cnn(C)c7)cccc65)n[nH]c4n3)CC2)[C@@H]1N [Compound 440],> 6.00
16,C[C@@H]1OCC2(CCN(c3cnc4c(N5CCCc6c(CC#N)cccc65)n[nH]c4n3)CC2)[C@@H]1N [Compound 441],> 6.00
17,"CO/N=C/c1ccc2c(n1)[C@@H](C)CCN2c1n[nH]c2nc(N3CCC4(CC3)CO[C@@H](C)[C@H]4N)cnc12 [Compound 444, (3S,4S)-8-{3-[(4S)-6-[(1E)-(methoxyimino)methyl]-4-methyl-1,2,3,4-tetrahydro-1,5-naphthyridin-1-yl]-1H-pyrazolo[3,4-b]pyrazin-6-yl}-3-methyl-2-oxa-8-azaspiro[4.5]decan-4-amine hydrochloride]",> 6.00
18,C[C@@H]1OCC2(CCN(c3cnc4c(N5CC[C@H](C)c6nc(C(=O)NCc7cccnc7)ccc65)n[nH]c4n3)CC2)[C@@H]1N [Compound 445],> 6.00
19,CC(C)NC(=O)c1ccc2c(n1)[C@@H](C)CCN2c1n[nH]c2nc(N3CCC4(CC3)CO[C@@H](C)[C@H]4N)cnc12 [Compound 446],> 6.00
20,C[C@@H]1OCC2(CCN(c3cnc4c(N5CC[C@H](C)c6nc(C(=O)NCCO)ccc65)n[nH]c4n3)CC2)[C@@H]1N [Compound 447],> 6.00
21,"C[C@@H]1OCC2(CCN(c3cnc4c(N5CCN(CC(=O)N(C)C)c6cc(C#N)ccc65)n[nH]c4n3)CC2)[C@@H]1N [Compound 453, 2-(4-{6-[(3S,4S)-4-amino-3-methyl-2-oxa-8-azaspiro[4.5]decan-8-yl]-1H-pyrazolo[3,4-b]pyrazin-3-yl}-7-cyano-1,2,3,4-tetrahydroquinoxalin-1-yl)-N,N-dimethylacetamide]",> 6.00
22,"C[C@@H]1OCC2(CCN(c3cnc4c(N5CC[C@H](C)c6nc(-c7nnc[nH]7)ccc65)n[nH]c4n3)CC2)[C@@H]1N [Compound 454, (3S,4S)-3-methyl-8-{3-[(4S)-4-methyl-6-(4H-1,2,4-triazol-3-yl)-1,2,3,4-tetrahydro-1,5-naphthyridin-1-yl]-1H-pyrazolo[3,4-b]pyrazin-6-yl}-2-oxa-8-azaspiro[4.5]decan-4-amine]",> 6.00
23,C[C@@H]1OCC2(CCN(c3cnc4c(N5CCCc6c(CS(C)(=O)=O)cccc65)n[nH]c4n3)CC2)[C@@H]1N [Compound 455],> 6.00
24,CC(C)S(=O)(=O)c1cccc2c1CCCN2c1n[nH]c2nc(N3CCC4(CC3)CO[C@@H](C)[C@H]4N)cnc12 [Compound 456],> 6.00
25,C[C@@H]1OCC2(CCN(c3cnc4c(N5CCCc6c5cccc6S(=O)(=O)C5CC5)n[nH]c4n3)CC2)[C@@H]1N [Compound 457],> 6.00
26,C[C@@H]1OCC2(CCN(c3cnc4c(N5CCCc6c(CN7CCOCC7)cccc65)n[nH]c4n3)CC2)[C@@H]1N [Compound 458],> 6.00

# Now from value to compound:
row,pIC50,SMILES
1,> 6.00,CC(C)N1CCN(c2n[nH]c3nc(N4CCC5(CC4)CO[C@@H](C)[C@H]5N)cnc23)c2ccc(C#N)cc21 [Compound 409]
2,> 6.00,C[C@@H]1OCC2(CCN(c3cnc4c(N5CCN([C@H]6C[C@H](O)C6)c6cc(C#N)ccc65)n[nH]c4n3)CC2)[C@@H]1N [Compound 411]
3,> 6.00,C[C@@H]1OCC2(CCN(c3cnc4c(N5CCN([C@H]6C[C@@H](O)C6)c6cc(C#N)ccc65)n[nH]c4n3)CC2)[C@@H]1N [Compound 412]
4,> 6.00,C[C@@H]1OCC2(CCN(c3cnc4c(N5CCN(C)c6nnccc65)n[nH]c4n3)CC2)[C@@H]1N [Compound 413]
5,5.00 to 6.00,C[C@@H]1OCC2(CCN(c3cnc4c(N5CCN(C)c6cnncc65)n[nH]c4n3)CC2)[C@@H]1N [Compound 414]
6,> 6.00,C[C@@H]1OCC2(CCN(c3cnc4c(N5CCCc6c5ccnc6S(C)(=O)=O)n[nH]c4n3)CC2)[C@@H]1N [Compound 416]
7,> 6.00,C[C@@H]1OCC2(CCN(c3cnc4c(N5CCCc6c5cccc6[S@@](C)(=N)=O)n[nH]c4n3)CC2)[C@@H]1N [Compound 421]
8,> 6.00,"CO/N=C/c1ccc2c(c1)[C@@H](C)CCN2c1n[nH]c2nc(N3CCC4(CC3)CO[C@@H](C)[C@H]4N)cnc12 [Compound 426, (3S,4S)-8-{3-[(4S)-6-[(1E)-(methoxyimino)methyl]-4-methyl-1,2,3,4-tetrahydroquinolin-1-yl]-1H-pyrazolo[3,4-b]pyrazin-6-yl}-3-methyl-2-oxa-8-azaspiro[4.5]decan-4-amine]"
9,> 6.00,"C[C@@H]1OCC2(CCN(c3cnc4c(N5CCCc6nc(C7=CCNCC7)ccc65)n[nH]c4n3)CC2)[C@@H]1N [Compound 427, (3S,4S)-3-methyl-8-{3-[6-(1,2,3,6-tetrahydropyridin-4-yl)-1,2,3,4-tetrahydro-1,5-naphthyridin-1-yl]-1H-pyrazolo[3,4-b]pyrazin-6-yl}-2-oxa-8-azaspiro[4.5]decan-4-amine hydrochloride]"
10,> 6.00,"Cc1nnc(-c2c(Cl)ccc3c2CCCN3c2n[nH]c3nc(N4CCC5(CC4)CO[C@@H](C)[C@H]5N)cnc23)o1 [Compound 429, (3S,4S)-8-{3-[6-chloro-5-(5-methyl-1,3,4-oxadiazol-2-yl)-1,2,3,4-tetrahydroquinolin-1-yl]-1H-pyrazolo[3,4-b]pyrazin-6-yl}-3-methyl-2-oxa-8-azaspiro[4.5]decan-4-amine]"
11,> 6.00,C[C@@H]1CCN(c2n[nH]c3nc(N4CCC5(CC4)CO[C@@H](C)[C@H]5N)cnc23)c2ccc(-c3ccn[nH]3)nc21 [Compound 432]
12,> 6.00,"C[C@@H]1OCC2(CCN(c3cnc4c(N5CCCc6c(-c7ncon7)cccc65)n[nH]c4n3)CC2)[C@@H]1N [Compound 433, (3S,4S)-3-methyl-8-{3-[5-(1,2,4-oxadiazol-3-yl)-1,2,3,4-tetrahydroquinolin-1-yl]-1H-pyrazolo[3,4-b]pyrazin-6-yl}-2-oxa-8-azaspiro[4.5]decan-4-amine]"
13,> 6.00,C[C@@H]1OCC2(CCN(c3cnc4c(N5CCCc6c(CCO)cccc65)n[nH]c4n3)CC2)[C@@H]1N [Compound 435]
14,> 6.00,CC(C)NC(=O)c1ccc2c(n1)[C@H](C)CCN2c1n[nH]c2nc(N3CCC4(CC3)CO[C@@H](C)[C@H]4N)cnc12 [Compound 438]
15,> 6.00,C[C@@H]1OCC2(CCN(c3cnc4c(N5CCN(CCO)c6cc(C#N)ccc65)n[nH]c4n3)CC2)[C@@H]1N [Compound 439]
16,> 6.00,COCCNC(=O)c1ccc2c(n1)[C@@H](C)CCN2c1n[nH]c2nc(N3CCC4(CC3)CO[C@@H](C)[C@H]4N)cnc12 [Compound 443]
17,> 6.00,"C[C@@H]1CCN(c2n[nH]c3nc(N4CCC5(CC4)CO[C@@H](C)[C@H]5N)cnc23)c2ccc(-c3nnc[nH]3)nc21 [Compound 452, dihydrochloride]"
